Key:
[1] = target: T1, Urokinase-type plasminogen activator (Homo sapiens, UniProt P00749); assay: Tested for inhibition of plasminogen activator urokinase (microPa)
Plasminogen [2] = target: T2, Plasminogen (Homo sapiens, UniProt P00747); assay: Tested for inhibition of plasmin
Serine protease 1 [3] = target: T3, Serine protease 1 (Bos taurus, UniProt P00760); assay: Tested for inhibition of trypsin
T3 sequence (P00760 whole entry): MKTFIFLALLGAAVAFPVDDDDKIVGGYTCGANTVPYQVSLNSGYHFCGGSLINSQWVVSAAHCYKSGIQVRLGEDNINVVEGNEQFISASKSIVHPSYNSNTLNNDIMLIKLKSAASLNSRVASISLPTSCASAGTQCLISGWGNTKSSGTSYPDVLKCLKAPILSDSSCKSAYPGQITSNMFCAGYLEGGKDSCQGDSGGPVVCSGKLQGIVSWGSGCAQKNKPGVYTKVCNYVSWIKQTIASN

[4] = target: T1, Urokinase-type plasminogen activator; assay: Compound was tested for inhibition of plasminogen activator urokinase (microPa).
Coagulation factor X = Coagulation factor X (Bos taurus, UniProt P00743); assay: Compound was tested for inhibition of Coagulation factor X
Chain of Coagulation factor X (P00743 41-180 limits assumed): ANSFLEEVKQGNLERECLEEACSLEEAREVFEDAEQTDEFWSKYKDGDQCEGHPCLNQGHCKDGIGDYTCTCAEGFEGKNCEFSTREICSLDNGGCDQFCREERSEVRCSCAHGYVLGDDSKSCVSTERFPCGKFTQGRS
Chain of Coagulation factor X (P00743 234-492 limits assumed): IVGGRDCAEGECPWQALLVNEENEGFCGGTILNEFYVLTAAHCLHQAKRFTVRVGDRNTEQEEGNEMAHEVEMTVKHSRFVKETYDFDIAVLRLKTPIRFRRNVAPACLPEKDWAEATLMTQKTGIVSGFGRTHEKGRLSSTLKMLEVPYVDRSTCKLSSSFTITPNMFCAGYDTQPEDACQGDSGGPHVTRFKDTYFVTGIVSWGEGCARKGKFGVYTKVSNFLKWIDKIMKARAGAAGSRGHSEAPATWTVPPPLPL

[5] = target: T1, Urokinase-type plasminogen activator; assay: Compound was tested for inhibition of plasminogen activator urokinase (microPa)
Plasma kallikrein = Plasma kallikrein (Homo sapiens, UniProt P03952); assay: Compound was tested for inhibition of plasma kallikrein
Chain of Plasma kallikrein (P03952 20-390 limits assumed): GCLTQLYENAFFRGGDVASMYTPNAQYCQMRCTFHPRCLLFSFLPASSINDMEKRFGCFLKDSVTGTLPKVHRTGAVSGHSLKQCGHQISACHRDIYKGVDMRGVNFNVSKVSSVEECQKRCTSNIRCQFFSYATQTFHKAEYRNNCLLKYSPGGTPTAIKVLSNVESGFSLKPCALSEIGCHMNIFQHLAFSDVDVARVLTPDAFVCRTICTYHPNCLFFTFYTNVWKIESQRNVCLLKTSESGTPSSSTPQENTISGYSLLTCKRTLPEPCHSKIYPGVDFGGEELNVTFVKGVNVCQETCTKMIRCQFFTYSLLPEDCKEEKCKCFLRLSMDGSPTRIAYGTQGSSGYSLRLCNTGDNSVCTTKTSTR
Chain of Plasma kallikrein (P03952 391-638 limits assumed): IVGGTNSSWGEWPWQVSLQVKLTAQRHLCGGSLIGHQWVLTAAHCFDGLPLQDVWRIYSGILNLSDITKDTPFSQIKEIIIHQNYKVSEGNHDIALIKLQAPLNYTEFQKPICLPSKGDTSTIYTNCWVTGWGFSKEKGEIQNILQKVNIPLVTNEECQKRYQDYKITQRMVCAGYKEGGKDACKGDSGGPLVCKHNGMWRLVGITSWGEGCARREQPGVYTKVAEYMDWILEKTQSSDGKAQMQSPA

Plasminogen [6] = target: T2, Plasminogen; assay: Compound was tested for inhibition of plasmin
[7] = Compound was tested for inhibition of protein Ca
Prothrombin = Prothrombin (Homo sapiens, UniProt P00734); assay: Compound was tested for inhibition of thrombin; set-up: species or system Bos taurus
Serine protease 1 [8] = target: T3, Serine protease 1; assay: Compound was tested for inhibition of trypsin
[9] = Compound was tested for inhibition of sc-tissue plasminogen activator

T2 sequence (P00747 97-580 limits assumed): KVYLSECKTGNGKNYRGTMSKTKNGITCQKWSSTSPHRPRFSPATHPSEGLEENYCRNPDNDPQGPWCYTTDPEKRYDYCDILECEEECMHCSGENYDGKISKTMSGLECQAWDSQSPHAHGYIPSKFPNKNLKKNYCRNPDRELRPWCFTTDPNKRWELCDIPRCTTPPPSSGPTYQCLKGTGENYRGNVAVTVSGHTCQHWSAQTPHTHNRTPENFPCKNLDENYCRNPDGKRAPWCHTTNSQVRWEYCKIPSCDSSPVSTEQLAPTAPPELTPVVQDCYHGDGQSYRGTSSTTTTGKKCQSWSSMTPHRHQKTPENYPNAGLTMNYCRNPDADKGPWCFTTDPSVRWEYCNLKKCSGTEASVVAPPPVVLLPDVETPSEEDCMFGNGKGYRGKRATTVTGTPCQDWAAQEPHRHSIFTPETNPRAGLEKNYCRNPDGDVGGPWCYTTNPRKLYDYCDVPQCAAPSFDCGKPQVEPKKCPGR
T2 sequence (P00747 581-810 limits assumed): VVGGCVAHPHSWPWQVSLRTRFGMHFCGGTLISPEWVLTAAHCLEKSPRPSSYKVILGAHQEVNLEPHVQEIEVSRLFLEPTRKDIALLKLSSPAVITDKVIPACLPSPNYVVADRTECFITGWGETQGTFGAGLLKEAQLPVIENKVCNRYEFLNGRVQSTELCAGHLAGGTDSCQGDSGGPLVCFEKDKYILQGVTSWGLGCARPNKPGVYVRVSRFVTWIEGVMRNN

COC(=O)C1CCCN(C(=O)C(Cc2cccc(C(=N)N)c2)NS(=O)(=O)c2c(C(C)C)cc(C(C)C)cc2C(C)C)C1 (stereo not drawn)
Ki [1]: 2.5 µM | Ki (Plasminogen [2]): 1 µM | Ki (Serine protease 1 [3]): 0.36 µM

COC(=O)C1CCCCN1C(=O)C(Cc1cccc(C(=N)N)c1)NS(=O)(=O)c1c(C(C)C)cc(C(C)C)cc1C(C)C (stereo not drawn)
Ki [1]: 33 µM | Ki (Plasminogen [2]): 1 µM | Ki (Serine protease 1 [3]): 1.4 µM

CC(C)c1cc(C(C)C)c(S(=O)(=O)NC(Cc2cccc(C(=N)N)c2)C(=O)N2CCC(C(=O)O)CC2)c(C(C)C)c1 (stereo not drawn)
Ki [1]: 52 µM | Ki (Plasminogen [2]): 12 µM | Ki (Serine protease 1 [3]): 6.4 µM

CC(C)c1cc(C(C)C)c(S(=O)(=O)NC(Cc2cccc(C(=N)N)c2)C(=O)N2CCCCCC2)c(C(C)C)c1 (stereo not drawn)
Ki [1]: 4.4 µM | Ki (Plasminogen [2]): 2.8 µM | Ki (Serine protease 1 [3]): 0.95 µM

N=C(N)c1cccc(CC(NS(=O)(=O)c2ccc3ccccc3c2)C(=O)N2CCCC2)c1 (stereo not drawn)
Ki [4]: 73 µM | Ki (Plasminogen [2]): 12 µM

CC(C)c1cc(C(C)C)c(S(=O)(=O)NC(Cc2cccc(C(=N)N)c2)C(=O)N2CCN(S(C)(=O)=O)CC2)c(C(C)C)c1 (stereo not drawn)
Ki [1]: 19 µM | Ki (Plasminogen [2]): 8 µM | Ki (Serine protease 1 [3]): 0.62 µM

COC(=O)C1CCN(C(=O)C(Cc2cccc(C(=N)N)c2)NS(=O)(=O)c2c(C(C)C)cc(C(C)C)cc2C(C)C)CC1 (stereo not drawn)
Ki [1]: 1.3 µM | Ki (Plasminogen [2]): 1.4 µM

CC(C)c1cc(C(C)C)c(S(=O)(=O)NC(Cc2cccc(C(=N)N)c2)C(=O)N2CCOCC2)c(C(C)C)c1 (stereo not drawn)
Ki [1]: 5.4 µM | Ki (Plasminogen [2]): 4.5 µM | Ki (Serine protease 1 [3]): 0.49 µM

CC(C)c1cc(C(C)C)c(S(=O)(=O)NC(Cc2cccc(C(=N)N)c2)C(=O)N2CCNCC2)c(C(C)C)c1 (stereo not drawn)
Ki [1]: 12 µM | Ki (Plasminogen [2]): 7.1 µM | Ki (Serine protease 1 [3]): 0.98 µM

CC(C)c1cc(C(C)C)c(S(=O)(=O)NC(Cc2cccc(C(=N)N)c2)C(=O)N2CCN(C)CC2)c(C(C)C)c1 (stereo not drawn)
Ki [1]: 52 µM | Ki (Plasminogen [2]): 21 µM | Ki (Serine protease 1 [3]): 3 µM

CCOC(=O)N1CCN(C(=O)C(Cc2cccc(C(=N)N)c2)NS(=O)(=O)c2c(C(C)C)cc(C(C)C)cc2C(C)C)CC1 (stereo not drawn)
Ki [1]: 0.96 µM | Ki (Plasminogen [2]): 1.2 µM | Ki (Serine protease 1 [3]): 0.12 µM

COC(=O)N1CCN(C(=O)C(Cc2cccc(C(=N)N)c2)NS(=O)(=O)c2c(C(C)C)cc(C(C)C)cc2C(C)C)CC1 (stereo not drawn)
Ki (Plasminogen [2]): 1.8 µM | Ki (Serine protease 1 [3]): 0.11 µM

CC(C)c1cc(C(C)C)c(S(=O)(=O)NC(Cc2cccc(C(=N)N)c2)C(=O)N2CCCC(C(=O)O)C2)c(C(C)C)c1 (stereo not drawn)
Ki [1]: 17 µM | Ki (Plasminogen [2]): 8.2 µM

CCOC(=O)N1CCN(C(=O)[C@H](Cc2cccc(C(=N)N)c2)NS(=O)(=O)c2c(C(C)C)cc(C(C)C)cc2C(C)C)CC1
Ki (Coagulation factor X): 1.7 µM | Ki [5]: 0.41 µM | Ki (Plasma kallikrein): 7.2 µM | Ki (Plasminogen [6]): 0.39 µM | Ki [7]: 2.3 µM | Ki (Prothrombin): 0.49 µM | Ki (Serine protease 1 [8]): 0.037 µM | Ki [9]: 4.9 µM

CC(C)c1cc(C(C)C)c(S(=O)(=O)NC(Cc2cccc(C(=N)N)c2)C(=O)N2CCCCC2)c(C(C)C)c1 (stereo not drawn)
Ki [1]: 5.1 µM | Ki (Plasminogen [2]): 2.6 µM | Ki (Serine protease 1 [3]): 1.3 µM

CNC(=O)C1CCCN(C(=O)C(Cc2cccc(C(=N)N)c2)NS(=O)(=O)c2c(C(C)C)cc(C(C)C)cc2C(C)C)C1 (stereo not drawn)
Ki [1]: 12 µM | Ki (Plasminogen [2]): 0.4 µM

N=C(N)c1cccc(CC(NS(=O)(=O)c2ccc3ccccc3c2)C(=O)N2CCCCCC2)c1 (stereo not drawn)
Ki [1]: 28 µM | Ki (Plasminogen [2]): 6.6 µM | Ki (Serine protease 1 [3]): 0.74 µM

N=C(N)c1cccc(CC(NS(=O)(=O)c2ccc3ccccc3c2)C(=O)N2CCCCCCC2)c1 (stereo not drawn)
Ki [1]: 19 µM | Ki (Plasminogen [2]): 7.8 µM

CNC(=O)C1CCN(C(=O)C(Cc2cccc(C(=N)N)c2)NS(=O)(=O)c2c(C(C)C)cc(C(C)C)cc2C(C)C)CC1 (stereo not drawn)
Ki [1]: 4.8 µM | Ki (Plasminogen [2]): 2.5 µM | Ki (Serine protease 1 [3]): 0.36 µM

N=C(N)c1cccc(CC(NS(=O)(=O)c2ccc3ccccc3c2)C(=O)N2CCOCC2)c1 (stereo not drawn)
Ki [1]: 58 µM | Ki (Plasminogen [2]): 7.7 µM

CC(C)c1cc(C(C)C)c(S(=O)(=O)NC(Cc2cccc(C(=N)N)c2)C(=O)N2CCCCC2C(=O)O)c(C(C)C)c1 (stereo not drawn)
Ki [1]: 1.3 µM | Ki (Plasminogen [2]): 1.5 µM | Ki (Serine protease 1 [3]): 0.5 µM

CC(C)c1cc(C(C)C)c(S(=O)(=O)NC(Cc2cccc(C(=N)N)c2)C(=O)N2CCCCCCC2)c(C(C)C)c1 (stereo not drawn)
Ki [1]: 7.8 µM | Ki (Plasminogen [2]): 3.2 µM | Ki (Serine protease 1 [3]): 0.83 µM

CC1CCN(C(=O)C(Cc2cccc(C(=N)N)c2)NS(=O)(=O)c2c(C(C)C)cc(C(C)C)cc2C(C)C)CC1 (stereo not drawn)
Ki (Plasminogen [2]): 4 µM

CC(C)c1cc(C(C)C)c(S(=O)(=O)NC(Cc2cccc(C(=N)N)c2)C(=O)N2CCCC2)c(C(C)C)c1 (stereo not drawn)
Ki [1]: 19 µM | Ki (Plasminogen [2]): 9.6 µM | Ki (Serine protease 1 [3]): 3.9 µM

— ChEMBL document CHEMBL1131872, “3-Amidinophenylalanine-based inhibitors of urokinase” (Bioorg Med Chem Lett, 1999)
